{
  "source": "patent US5597595A",
  "about": "“Low pH beverage fortified with calcium and vitamin D” (Abbott Laboratories, priority 1995, dated 1997)",
  "key": {"[1]": {"details": "without aluminum-containing drugs; normally functioning kidneys; cited from earlier work"}, "[2]": {"details": "rats fed three weeks, right femur calcium; cited from earlier work"}, "[3]": {"assay": "Aluminum content of calcium sources", "details": "analysis of commercially available compounds", "excerpt": "^1 Values determined by analysis of commercially available compounds."}, "[4]": {"assay": "Recovery of vitamin D3 at 0-time", "type": "physicochemical", "excerpt": "The low pH beverage, the vitamin D3 emulsion and the powder beverage are saponified with methanolic potassium hydroxide to destroy the fat and release the vitamin D3 for extraction. The saponified samples are extracted with an ether/pentane mixture and the extracts are evaporated to dryness using nitrogen and reconstituted with iso-octane. Sample extracts are eluted on a cleanup HPLC column (cyanopropyl bonded silica), and column switching is used to transfer a \"slice\" of the eluant containing vitamin D3 onto an additional HPLC analytical column (aminopropyl bonded silica) for final quantitation. The vitamin D3 peak in the sample is quantitated using a linear regression external standard curve.\nTo compare the initial processing loss and stability of vitamin D3 of each variable with successive batches, two criteria were routinely measured: (1) % recovery of vitamin D3 at 0-time; and (2) half life of vitamin D3 (t1/2).\nThe % recovery of vitamin D3 of each batch was calculated by dividing the 0-time vitamin D3 result by the theoretical fortification of each batch times 100%. […] As used herein \"theoretical fortification\" refers to amount of vitamin D3 added to the product. As used herein \"0-time\" refers to the time of initial vitamin D3 analysis of the product. […]"}, "[5]": {"experimental": "In this evaluation solubility was determined by a visual examination."}, "[6]": {"details": "in orange juice and apple juice; cited from earlier work"}, "[7]": {"test_system": "aciduric and acidophilic organisms like certain varieties of yeasts and molds", "details": "pH reduced from 4.5 to 3.0; cited from earlier work"}, "[8]": {"assay": "Acid-base and calcium binding constants of glycerophosphate", "type": "physicochemical", "details": "Henderson-Hasselbalch equation; listed as GP", "description": "GaGP binds calcium with an approximate formation constant of 1.7. CaGP, when dissolved in water, dissociates readily to provide \"free\" calcium ions and protonated glycerophosphate species. […] On the other hand, anions, such as malate, tartrate, propionate or succinate, do provide buffer capacity at pH=3.6, and accordingly require more base or acid than GP for final adjustment of pH."}, "[9]": {"details": "weak acid; cited from earlier work"}, "[10]": {"assay": "Titratable acidity of calcium sources", "type": "physicochemical", "details": "with the exception of calcium chloride", "description": "Acidity is desired in the liquid nutritional product of the present invention for several reasons such as: to maintain the calcium salt solubility, to complement flavor, to control microbial growth, and to enhance the role of preservatives, specifically potassium benzoate or sodium benzoate. On the other hand, too much acidity can result in increased tartness and sourness that make the product undesirable from a sensory point of view. […] Titratable acidity is an indication of the total acidity of a beverage."}, "[11]": {"details": "piglets; cited from earlier work"}, "[12]": {"details": "low birth weight infants; cited from earlier work"}, "[13]": {"details": "600-800 IU/day; elderly, homebound or institutionalized individuals; cited from earlier work"}},
  "note": "Structures can show the parent of a compound that is named as a salt. Where two headings read alike, the source gives them in different places.",
  "data": [
    {"compound": "O=C(O)CC(O)(CC(=O)O)C(=O)O", "note": "[Calcium Citrate, calcium citrate]", "values": [
      {"measurement": "risk of aluminum toxicity", "setting": "[1]", "value": "does not pose a risk of aluminum toxicity"},
      {"measurement": "relative calcium bioavailability as compared to a control", "setting": "[2]", "value": 110, "unit": "%"}
    ]},
    {"compound": "[Ca+2].[OH-].[OH-]", "note": "[Calcium Hydroxide]", "values": [
      {"measurement": "Aluminum Content", "setting": "[3]", "value": "300-400 parts per million (ppm)"}
    ]},
    {"compound": "N[C@@H](CS)C(=O)O", "note": "[Cysteine]", "values": [
      {"measurement": "vitamin D3 recovery, in words", "setting": "[4]", "value": "did not affect vitamin D3 recovery"}
    ]},
    {"compound": "O=C(O)[C@H](O)[C@@H](O)[C@H](O)[C@H](O)CO", "note": "[D-Gluconic-Acid, D-gluconic acid (hemicalcium salt)]", "values": [
      {"measurement": "solubility at 1 month, pH 5.0", "setting": "[5]", "value": "partially Soluble"}
    ]},
    {"compound": "O=C(CO)[C@@H](O)[C@H](O)[C@H](O)CO", "note": "[Fructose]", "values": [
      {"measurement": "calcium bioavailability from CCM", "setting": "[6]", "value": "promoted positive calcium bioavailability"}
    ]},
    {"compound": "O=P([O-])([O-])[O-].O=P([O-])([O-])[O-].[Ca+2].[Ca+2].[Ca+2]", "note": "[Tricalcium Phosphate, tricalcium phosphate]", "values": [
      {"measurement": "relative calcium bioavailability as compared to a control", "setting": "[2]", "value": 110, "unit": "%"}
    ]},
    {"compound": "O=C(O)c1ccccc1", "note": "[benzoic acid]", "values": [
      {"measurement": "preservative effect on reducing pH", "setting": "[7]", "value": "increased by nearly three times"}
    ]},
    {"compound": "O=P(O)(O)OCC(O)CO", "note": "(centres unmarked) [glycerophosphate]", "values": [
      {"measurement": "effective acid-base buffering pH range / buffering capacity", "setting": "[8]", "value": "insignificant buffering capacity at pH=3.6"},
      {"measurement": "pKf", "setting": "[9]", "value": 6.1}
    ]},
    {"compound": "Calcium Glycerophosphate [CaGP]", "values": [
      {"measurement": "titratable acidity, in words", "setting": "[10]", "value": "lowest titratable acidity"},
      {"measurement": "effectiveness as a source of calcium in TPN solutions", "setting": "[11]", "value": "as effective as calcium gluconate"},
      {"measurement": "effectiveness as a source of calcium in TPN solutions", "setting": "[12]", "value": "as effective as calcium gluconate"}
    ]},
    {"compound": "vitamin D", "values": [
      {"measurement": "effect on calcium balance and fracture risk", "setting": "[13]", "value": "improve calcium balance and reduce fracture risk"}
    ]}
  ]
}
